Measured values: patent US12257274B2, “Fructophilic lactic acid producing bacteria” (priority 2019, dated 2025)
Structures can show the parent of a compound that is named as a salt. Where two headings read alike, the source gives them in different places.

Columns and labels:
[1] = system: S. aureus ATCC 6538; experiment: MIC of antibiotics by broth microdilution (CLSI), reference culture; type: cell-based
Description: (§1) MIC was determined as per the guidelines of Clinical and Laboratory Standards Institute (CLSI 2012). Bacillus coagulans MTCC 25235 suspensions were prepared by suspending 18 h grown bacterial culture in sterile normal saline (0.89% NaCl wt/vol; Himedia, Mumbai India). The turbidity of the bacterial suspension was adjusted to 0.5 McFarland standards (equivalent to 1.5×10^8 colony forming units (CFU)/ml). The antibiotics stock solutions were prepared as per CLSI guidelines and 2-fold serial dilutions were prepared in broth medium (glucose yeast extract acetate broth [GYEA, HiMedia, Mumbai India for Bacillus coagulans MTCC 25235 and Mueller Hinton Broth [MHB, Difco Laboratories, Detroit, Mich USA] for S. aureus) in 100 μl volume in 96-well U bottom microtiter plates (BD Labware, NJ USA). The above-mentioned bacterial suspension was further diluted in the MHB and 100 μl volume of this diluted inoculum was added to each well of the plate resulting in the final inoculum of 5×10^5 CFU/ml in the well and the final concentration of antibiotics ranged from 0.0078 to 4 μg/ml. S. aureus ATCC 6538 was used as reference culture in this study. The plates were incubated at 37° C. for 24 h and were visually read for the absence or presence of turbidity. The minimum concentration of the compound concentration showing no turbidity was recorded as MIC.

[2] = system: Bacillus coagulans MTCC 25235; experiment: MIC of antibiotics by broth microdilution (CLSI), antibiotic resistance pattern; type: cell-based
Description: as §1

[3] = Staphylococcus aureus, ATCC6538, against S. aureus ATCC 6538, MHB, 37° C., 24 h, read-out: MIC
[4] = Heyndrickxia coagulans, MTCC25235, against Bacillus coagulans MTCC 25235, GYEA broth, 37° C., 24 h, read-out: MIC
[5] = Staphylococcus aureus, ATCC6538, 24 h
[6] = Heyndrickxia coagulans, MTCC25235, 24 h
[7] = against S. aureus ATCC 6538, MHB, 37° C., 24 h
[8] = against Bacillus coagulans MTCC 25235, GYEA broth, 37° C., 24 h

Molecule | MIC [1, 3] [µg/mL] | MIC [2, 4] [µg/mL] | also measured
[H]/N=C(/N)N[C@H]1[C@H](O)[C@@H](O)[C@H](O[C@@H]2O[C@@H](C)[C@](O)(C=O)[C@H]2O[C@@H]2O[C@@H](CO)[C@H](O)[C@@H](O)[C@@H]2NC)[C@@H](N/C(N)=N\[H])[C@@H]1O [Streptomycin sulphate] | 4 | 0.062 | –
O=C(N[C@H](CO)[C@H](O)c1ccc([N+](=O)[O-])cc1)C(Cl)Cl [Chloramphenicol] | 2 | 0.031 | –
CN[C@H](CC(C)C)C(=O)N[C@H]1C(=O)N[C@@H](CC(N)=O)C(=O)N[C@H]2C(=O)N[C@H]3C(=O)N[C@H](C(=O)N[C@H](C(=O)O)c4cc(O)cc(O)c4-c4cc3ccc4O)[C@H](O)c3ccc(c(Cl)c3)Oc3cc2cc(c3O[C@@H]2O[C@H](CO)[C@@H](O)[C@H](O)[C@H]2O[C@H]2C[C@](C)(N)[C@H](O)[C@H](C)O2)Oc2ccc(cc2Cl)[C@H]1O [Vancomycin hydrochloride] | – | – | MIC [1, 5]: 0.5 µg/mL; MIC [2, 6]: 0.25 µg/mL
CC1(C)S[C@@H]2[C@H](NC(=O)[C@H](N)c3ccccc3)C(=O)N2[C@H]1C(=O)O [Ampicillin sodium salt] | 0.031 | 0.125 | –
Kanamycin sulphate | – | – | MIC [1, 7]: 7.0 µg/mL; MIC [2, 8]: 0.062 µg/mL
CN(C)[C@@H]1C(O)=C(C(N)=O)C(=O)[C@@]2(O)C(O)=C3C(=O)c4c(O)cccc4[C@@](C)(O)[C@H]3C[C@@H]12 [Tetracycline hydrochloride] | 0.062 | 0.03 | –
Gentamicin sulphate | – | – | MIC [1, 7]: 0.25 µg/mL; MIC [2, 8]: 0.06 µg/mL
CCC[C@@H]1C[C@@H](C(=O)N[C@@H]([C@H]2O[C@H](SC)[C@H](O)[C@@H](O)[C@H]2O)[C@H](C)Cl)N(C)C1 [Clindamycin hydrochloride] | 0.062 | 0.25 | –
CC[C@H]1OC(=O)[C@H](C)[C@@H](O[C@H]2C[C@@](C)(OC)[C@@H](O)[C@H](C)O2)[C@H](C)[C@@H](O[C@@H]2O[C@H](C)C[C@H](N(C)C)[C@H]2O)[C@](C)(O)C[C@@H](C)C(=O)[C@H](C)[C@@H](O)[C@]1(C)O [Erythromycin] | – | – | MIC [1, 5]: 0.125 µg/mL; MIC [2, 6]: 0.125 µg/mL
